Measurements reported in patent US9284296B2, “Bipyridine sulfonamide derivatives for the treatment of neurodegenerative diseases or conditions” (AUBERGINE PHARMACEUTICALS LLC, priority 2010, dated 2016).

How the values were obtained:
Assay type in all cases: cell-based
[1] = test system: SH-SY5Y human neuroblastoma cells; assay: Protection against hydrogen peroxide-induced cell death; conditions: for EC50: Homo sapiens, SH-SY5Y cells, 1 h preincubation, 100 μM hydrogen peroxide, 24 h, LDH readout of live cells
Protocol: The aim of this assay is to determine the neuroprotective effect of the compounds when human neuroblastoma cells are exposed to the oxidative stress induced by hydrogen peroxide, which leads to cell death. Therefore the protective effect of the compounds was measured by monitoring cell survival using a suitable commercial kit (Cytotoxicity Detection Kit, Roche Diagnostics GmbH, Mannheim, Germany) based on the quantification of the lactate dehydrogenase activity obtained from lysates of the remaining live cells with a colorimetric assay yielding absorbance at 492 nm as the final readout.
SH-SY5Y human neuroblastoma cells were seeded into 96-well culture plate at a density of 10,000 cells/well. Cells were preincubated for one hour with different concentrations of the compound at a 1% (v/v) DMSO concentration in an equivolumetric mixture of Minimum Essential Medium (MEM) and Nutrient Mixture HAM F12 supplemented with 10% foetal bovine serum, 100 U/ml penicillin, 100 μg/ml streptomycin, 1 mM each of non-essential aminoacids (commercial preparation from GIBCO, Paisley, UK) and 2 mM L-glutamine. Hydrogen peroxide was then added to reach 100 μM and the incubation was extended for 24 h. Then the medium was removed and live cells, which remained attached to the bottom of the plate, were lysed by incubating them during 5 min with 50 μl of 1% (v/v) Triton X-100 in Krebs-Hepes buffer (10 mM Hepes pH7.3 with 145 mM NaCl, 5.5 mM KCl, 1 mM MgCl2, 2 mM CaCl2 and 1 mM glucose). This lysate was used to measure LDH activity using the commercial kit according to the manufacturer's instructions. In the culture plate several wells were included as a control of cell death, in these wells the cells were preincubated with 1% (v/v) DMSO before hydrogen peroxide addition. Likewise, several wells were included as control for full cell survival, in these wells the addition of H2O2 was omitted. The absorbance of each tested sample was normalized to that of the control wells, so that for every compound concentration the percentage of protective effect was calculated with the following equation:
[formula] where “S” is the absorbance of the sample being considered, “E” is the average absorbance of wells used as control of full cell survival and “B” is the average absorbance of wells used as control of cell death. The values obtained at every compound concentration were finally used to calculate the EC50 (i.e., the concentration causing 50% of protective effect) of the tested compound. For that purpose the data were fitted to a classical 4-parameters isotherm equation using the nonlinear regression function of GraphPad™ Prism 5.0 (GraphPad Software Inc.), such equation is described below:
[formula] where “L” is the lower asymptote of the theoretical sigmoidal curve, “H” is the higher asymptote, “C” is the concentration of compound and “n” is the Hill coefficient.

[2] = test system: secretion of amyloid peptide β1-40 (Aβ1-40); assay: Inhibition of β-amyloid secretion (CHO7w cells stably transfected with human APP, ELISA); conditions: CHO-7W, 24 h incubation, range stated for the listed compounds together
Protocol: The inhibition caused by the compounds on the secretion of amyloid peptide β1-40 (Aβ1-40) was determined by measuring the levels of this peptide in cell supernatants after incubating the cells with several concentrations of the tested compound. A CHO7w cell line, stably transfected with human amyloid precursor protein (APP), was used. Cells were dispensed in 96-well culture plates (5,000 cells/well) and grown in DMEM supplemented with 2% (v/v) foetal bovine serum, 100 U/ml penicillin, 100 μg/ml streptomycin, 2 mM L-glutamine and 200 μg/ml G418 in the presence of several concentrations of the tested compound which had been previously dissolved in DMSO (1% (v/v) DMSO final concentration). After a 24 h incubation the amount of Aβ1-40 secreted to the medium was measured with an ELISA-based commercial kit (Human Amyloid β-40 ELISA High Sensitivity Kit, Millipore, Billerica, Mass., USA) using absorbance at 450 nm as the final readout. In the culture plate several wells were included as a control for lack of Aβ1-40 secretion, in these wells the cells were incubated in the presence of 16% (v/v) DMSO to inhibit cell growth therefore abolishing Aβ1-40 secretion. Likewise, several wells were also included as a control for full Aβ1-40 secretion, in these wells the cells were grown in the presence of 1% (v/v) DMSO. The absorbance of each tested sample was normalized to that of the control wells, so that for every compound concentration the percentage of inhibition was calculated with the following equation:
[formula] where “S” is the absorbance of the sample being considered, “E” is the average absorbance of wells lacking Aβ1-40 secretion and “B” is the average absorbance of wells with full Aβ1-40 secretion. The inhibition values obtained at every compound concentration were fitted to a 4-parameters isotherm equation, as described above, to calculate the […] (i.e., the concentration causing 50% of inhibition of Ab1-40 secretion).

[3] = test system: secretion of soluble amyloid precursor protein-α (sAPPα); assay: Stimulation of sAPPα secretion (CHO7w cells stably transfected with human APP, AlphaLISA); conditions: for EC50 / Emax: Homo sapiens, CHO-7W, CHO7w cells, 24 h incubation, range stated for the listed compounds together; for Emax: read-out: maximum effect (sAPPα secretion)
Protocol: The effect of the compounds on the stimulation of the secretion of soluble amyloid precursor protein-α (sAPPα) was determined by measuring the levels of this protein in cell supernatants after incubating the cells with several concentrations of the tested compound. A CHO7w cell line, stably transfected with human APP, was used. Cells were dispensed in 96-well culture plates (5,000 cells/well) and grown in DMEM supplemented with 2% (v/v) foetal bovine serum, 100 U/ml penicillin, 100 μg/ml streptomycin, 2 mM L-glutamine and 200 μg/ml G418 in the presence of several concentrations of the tested compound which had been previously dissolved in DMSO (1% (v/v) DMSO final concentration). After 24 h of incubation 5 μl of the culture supernatants were withdrawn and their sAPPα. concentration was measured with a commercial kit (AlphaLISA® Amyloid Precursor Protein-α Secreted Research kit, PerkinElmer, Waltham, Mass., USA) following manufacturer's instructions. In the culture plate several wells were included as a control for background sAPPα secretion, in these wells the cells were incubated with 1% (v/v) DMSO. The results obtained for each tested sample were normalized by using the following equation:
[formula] where “S” is the sAPPα concentration of the sample being considered, “B” is the average sAPPα concentration of wells used for background secretion and “M” is the sAPPα concentration of wells yielding the highest value. These normalized values obtained at every compound concentration were finally used to calculate the EC50 of the tested compound fitting them to a 4-parameters isotherm equation as already described. The average EC50s ranges are reported in Table 4 together with the maximum observed effect (and the concentration at which this effect was reached), this latter value was calculated for each compound according to the following equation:
[formula] with “M” and “B” as defined above.

Compound	EC50 [1] [nM]	IC50 [2] [nM]	other results
COc1cc(CNS(=O)(=O)c2ccc(C(F)(F)F)cc2)nc(-c2ccccn2)c1 [Compound 4, N-(4-Methoxy-[2,2′]bipyridinyl-6-ylmethyl)-4-trifluoromethyl-benzenesulfonamide]	2600	300 to 42000	–
COc1cc(CNS(=O)(=O)c2ccccc2)nc(-c2ccccn2)c1 [Compound 6, N-(4-Methoxy-[2,2′]bipyridinyl-6-ylmethyl)-benzenesulfonamide]	1580	–	EC50 [3]: 500 to 11000 nM; Emax [3]: 250 to 500%
COc1cc(CNS(=O)(=O)c2cccs2)nc(-c2ccccn2)c1 [Compound 8]	90	–	rank of activity among compounds assayed (protection against hydrogen peroxide) ([1]; comparison within Table 2): most active compound; EC50 [3]: 500 to 11000 nM; Emax [3]: 250 to 500%; rank of concentration at which maximum effect was reached (sAPPα secretion) ([3]; comparison among tested compounds): maximum effect at the lowest concentration
COc1cc(CNS(=O)(=O)c2ccc(C(C)=O)cc2)nc(-c2ccccn2)c1 [Compound 9]	6100	–	EC50 [3]: 500 to 11000 nM; Emax [3]: 250 to 500%
COc1cc(CNS(=O)(=O)c2ccc(F)cc2)nc(-c2ccccn2)c1 [Compound 11, 4-Fluoro-N-(4-methoxy-[2,2′]bipyridinyl-6-ylmethyl)-benzenesulfonamide]	1300	–	EC50 [3]: 500 to 11000 nM; Emax [3]: 250 to 500%
COc1cc(CNS(=O)(=O)c2ccc(C)s2)nc(-c2ccccn2)c1 [Compound 24, 5-Methyl-thiophene-2-sulfonic acid (4-methoxy-[2,2′]bipyridinyl-6-ylmethyl)-amide]	3460	300 to 42000	–
COc1cc(CN(S(=O)(=O)c2ccc(Cl)s2)S(=O)(=O)c2ccc(Cl)s2)nc(-c2ccccn2)c1 [Compound 26]	4600	300 to 42000	–
COc1cc(CN(Cc2cc(OC)cc(-c3ccccn3)n2)S(=O)(=O)c2ccc(Cl)s2)nc(-c2ccccn2)c1 [Compound 27]	3520	300 to 42000	–
CCN(CC)CCOc1cc(CN(Cc2cc(OCCN(CC)CC)cc(-c3ccccn3)n2)S(=O)(=O)c2cccs2)nc(-c2ccccn2)c1 [Compound 29, Thiophene-2-sulfonic acid bis-[4-(2-diethylamino-ethoxy)-[2,2′]bipyridinyl-6-ylmethyl]-amide]	–	300 to 42000	–
COc1ccc(S(=O)(=O)NCc2cc(OC)cc(-c3ccccn3)n2)cc1 [Compound 38, 4-Methoxy-N-(4-methoxy-[2,2′]bipyridinyl-6-ylmethyl)-benzenesulfonamide]	–	300 to 42000	–
COc1cc(CNS(=O)(=O)c2ccccc2C#N)nc(-c2ccccn2)c1 [Compound 40]	–	300 to 42000	–
COc1cc(CNS(=O)(=O)c2ccc(-c3ccno3)s2)nc(-c2ccccn2)c1 [Compound 42]	–	300 to 42000	–
COc1cc(CNS(=O)(=O)c2cc(Cl)ccc2F)nc(-c2ccccn2)c1 [Compound 44]	–	300 to 42000	–
COc1cc(CNS(=O)(=O)c2ccc(-c3ccccn3)s2)nc(-c2ccccn2)c1 [Compound 46]	–	300 to 42000	–
COc1cc(CNS(=O)(=O)c2sc(Cl)nc2C)nc(-c2ccccn2)c1 [Compound 47]	–	300 to 42000	–
COC(=O)c1ccc(S(=O)(=O)NCc2cc(OC)cc(-c3ccccn3)n2)o1 [Compound 51]	–	300 to 42000	–
COc1cc(CNS(=O)(=O)c2ccc(CNC(C)=O)s2)nc(-c2ccccn2)c1 [Compound 52]	–	300 to 42000	–
COc1cc(CNS(=O)(=O)c2ccc(-c3cnco3)s2)nc(-c2ccccn2)c1 [Compound 55]	1300	300 to 42000	–

Compound	EC50 [1] [nM]	IC50 [2] [nM]	other results
COc1cc(CNS(=O)(=O)c2cccc(Cl)c2F)nc(-c2ccccn2)c1 [Compound 56]	1060	300 to 42000	–
COc1cc(CNS(=O)(=O)c2cc(C(F)(F)F)ccc2F)nc(-c2ccccn2)c1 [Compound 66]	–	300 to 42000	–
COc1cc(CNS(=O)(=O)c2cc3ccccc3s2)nc(-c2ccccn2)c1 [Compound 73]	–	300 to 42000	–
COc1cc(CNS(=O)(=O)c2ccc([N+](=O)[O-])cc2)nc(-c2ccccn2)c1 [Compound 74]	–	300 to 42000	–
COc1cc(CNS(=O)(=O)c2c(C)cc(C)cc2C)nc(-c2ccccn2)c1 [Compound 75]	–	300 to 42000	–
COc1cc(CNS(=O)(=O)CC(F)(F)F)nc(-c2ccccn2)c1 [Compound 82]	500	300 to 42000	–
COc1cc(CNS(=O)(=O)c2c(C)cccc2Cl)nc(-c2ccccn2)c1 [Compound 84]	–	300 to 42000	–
COc1cc(CNS(=O)(=O)c2c(F)cc(OC)cc2F)nc(-c2ccccn2)c1 [Compound 85]	–	300 to 42000	–
COc1cc(CNS(=O)(=O)CCC(F)(F)F)nc(-c2ccccn2)c1 [Compound 86]	–	300 to 42000	–
COc1cc(CNS(=O)(=O)c2ccc3c(c2)OCCO3)nc(-c2ccccn2)c1 [Compound 87]	–	300 to 42000	–
COc1cc(CNS(=O)(=O)c2ccc(C(C)(C)C)cc2)nc(-c2ccccn2)c1 [Compound 88]	–	300 to 42000	–
COc1cc(CNS(=O)(=O)c2ccc(-c3ccccc3)cc2)nc(-c2ccccn2)c1 [Compound 89]	–	300 to 42000	–
COc1cc(CNS(=O)(=O)c2c(Cl)cccc2Cl)nc(-c2ccccn2)c1 [Compound 97]	–	300 to 42000	–
COc1cc(CNS(=O)(=O)c2cc(Cl)ccc2Cl)nc(-c2ccccn2)c1 [Compound 100]	1040	300 to 42000	–
COc1cc(CNS(=O)(=O)c2sc(Cl)nc2Cl)nc(-c2ccccn2)c1 [Compound 101]	230	300 to 42000	–
COc1cc(CNS(=O)(=O)c2ccc(C(F)(F)F)cc2[N+](=O)[O-])nc(-c2ccccn2)c1 [Compound 102]	–	300 to 42000	–
COc1cc(CNS(=O)(=O)c2cnc(Cl)s2)nc(-c2ccccn2)c1 [Compound 106]	630	300 to 42000	–
COc1cc(CNS(=O)(=O)c2cnc(Cl)nc2)nc(-c2ccccn2)c1 [Compound 107]	–	300 to 42000	–
